Common to all, as to format: functional, organism-based
For assay [1], the system named is Cavia porcellus. Description: Antitussive activity against citric acid-induced cough in Cavia porcellus albino (guinea pig) model assessed as decrease in cough frequency per 10 min at 5 to 20 mg/kg, ip administered 30 min before aersol of citric acid for 10 min.
The subject of assay [2] is Cavia porcellus. The experiment in a line: Antitussive activity against citric acid-induced cough in Cavia porcellus albino (guinea pig) model assessed as increase in cough latency at 5 to 20 mg/kg, ip administered 30 min before aersol of citric acid for 10 min.
Assay [3] relates to Cavia porcellus. Description: Antitussive activity against citric acid-induced cough in Cavia porcellus albino (guinea pig) model assessed as decrease in cough frequency per 10 min at 10 mg/kg, ip administered 30 min before aersol of citric acid for 10 min. The arrangement: dose 10 mg/kg.
For assay [4], the system named is Cavia porcellus. The experiment in a line: Antitussive activity against citric acid-induced cough in Cavia porcellus albino (guinea pig) model assessed as increase in cough latency at 10 mg/kg, ip administered 30 min before aersol of citric acid for 10 min. The arrangement: dose 10 mg/kg.

The structures appear in SMILES notation. Active and inactive are the calls of the source. The rule behind the calls is not given here.

On to `COc1ccc(CNc2ccc3nc4n(c(=O)c3c2)CCCCC4)cc1OC`, for which, in assay [1], the inhibition entry is “Active”. Also, the outcome in assay [2] was Active.
With `CN1c2ccccc2C(=O)N2CCCCCC21` (centres undefined), in assay [1], the inhibition result was “Active”. Further, the result in assay [2] was Active.
With `Nc1ccc2nc3n(c(=O)c2c1)CCCCC3`, the inhibition result in assay [1] was “Active”. Besides, the outcome in assay [2] was Active.
For `O=c1c2cc([N+](=O)[O-])ccc2nc2n1CCCCC2`, the inhibition entry in assay [1] is “Active”. Besides, the result in assay [2] was Active.
As for `O=c1c2cc(NCc3ccc([N+](=O)[O-])cc3)ccc2nc2n1CCCCC2`, the inhibition result in assay [1] was “Active”. For the same compound, the outcome in assay [2] was Active.
In the case of `CC(=O)N1c2ccccc2C(=O)N2CCCCCC21` (centres undefined), in assay [1], the inhibition result is “Active”. Besides, the result in assay [2] was Active.
Turning to `O=C1c2ccccc2NC2CCCCCN12` (centres undefined), in assay [1], the inhibition result was “Active”. In addition, the outcome in assay [2] was Active.
For the compound `O=c1c2cc(O)cc(O)c2nc2n1CCCCC2`, the inhibition result in assay [1] was “Active”. Also, the outcome in assay [2] was Active.
For `COc1ccc2c3c1O[C@H]1[C@@H](O)C=C[C@H]4[C@@H](C2)N(C)CC[C@@]341`, the inhibition entry in assay [3] is “Active”. Also, the result in assay [4] was Active.
Regarding `COc1cc(CNc2ccc3nc4n(c(=O)c3c2)CCCCC4)cc(OC)c1OC`, the inhibition result in assay [1] was “Active”. The result in assay [2] was Active.
In the case of `O=C1c2ccccc2N(C(=O)c2ccccc2)C2CCCCCN12` (centres undefined), in assay [1], the inhibition result is “Active”. The outcome in assay [2] was Active.
Regarding `N#Cc1ccc(CNc2ccc3nc4n(c(=O)c3c2)CCCCC4)cc1`, the inhibition entry in assay [1] is “Active”. Also, the result in assay [2] was Active.
On to `CCN1c2ccccc2C(=O)N2CCCCCC21` (centres undefined), for which the inhibition entry in assay [1] was “Active”. Moreover, the result in assay [2] was Active.
For the compound `O=C1c2ccccc2N(Cc2ccccc2)C2CCCCCN12` (centres undefined), the inhibition result in assay [1] was “Active”. For the same compound, the outcome in assay [2] was Active.
`COc1cc(OC)c2nc3n(c(=O)c2c1)CCCCC3`: the inhibition entry in assay [1] was “Active”. The result in assay [2] was Active.
As to `O=c1c2cc(Br)cc(Br)c2nc2n1CCCCC2`, the inhibition entry in assay [1] is “Active”. The outcome in assay [2] was Active.
On to `O=c1c2ccccc2nc2n1CCCCC2`, for which, in assay [1], the inhibition entry is “Active”. In addition, the outcome in assay [2] was Active.
